GI50 and melting point data for 31 compounds are collected here from patent US20020026052A1, “3-cyanoquinolines, 3-cyano-1,6-naphthyridines, and 3-cyano-1,7-naphthyridines as protein kinase inhibitors” (American Home Products Corporation, priority 2000, published 2002).

Structures are written as SMILES. Several values for one entry are separate records, joined by “and”; a condition that tells them apart may be missing. Identical values can stand only once. Bounds are passed on as bounds.

For data set [1], the target named is Rat2 fibroblasts stably transformed with v-Src/Hu c-Src fusion gene (Homo sapiens, UniProt P12931, cells depend on it, form not given). In words: Anchorage Independent Src-transformed Fibroblast Proliferation Assay. The data set is classed as cell-based, Rat. The note with it: suspension growth, MTS reagent on Day 5; read-out: anch-indep src-tx fib IC50. As for the experimental part:
Anchorage Independent Src-transformed Fibroblast Proliferation Assay
Rat2 fibroblasts stably transformed with a plasmid containing a CMV promotor controlled v-Src/Hu c-Src fusion gene in which the catalytic domain of human c-Src was inserted in place of the v-Src catalytic domain in the v-Src gene are used for the measurement of src dependent suspension growth. […] Multiple entries for a given compound indicate that it was tested multiple times.
(Tetrazolium assays rely on reduction of a dye to a coloured formazan, in cell work by metabolically active cells.)

Sequence of Rat2 fibroblasts stably transformed with v-Src/Hu c-Src fusion gene (P12931 whole entry, change not shown, the tested form may be a part): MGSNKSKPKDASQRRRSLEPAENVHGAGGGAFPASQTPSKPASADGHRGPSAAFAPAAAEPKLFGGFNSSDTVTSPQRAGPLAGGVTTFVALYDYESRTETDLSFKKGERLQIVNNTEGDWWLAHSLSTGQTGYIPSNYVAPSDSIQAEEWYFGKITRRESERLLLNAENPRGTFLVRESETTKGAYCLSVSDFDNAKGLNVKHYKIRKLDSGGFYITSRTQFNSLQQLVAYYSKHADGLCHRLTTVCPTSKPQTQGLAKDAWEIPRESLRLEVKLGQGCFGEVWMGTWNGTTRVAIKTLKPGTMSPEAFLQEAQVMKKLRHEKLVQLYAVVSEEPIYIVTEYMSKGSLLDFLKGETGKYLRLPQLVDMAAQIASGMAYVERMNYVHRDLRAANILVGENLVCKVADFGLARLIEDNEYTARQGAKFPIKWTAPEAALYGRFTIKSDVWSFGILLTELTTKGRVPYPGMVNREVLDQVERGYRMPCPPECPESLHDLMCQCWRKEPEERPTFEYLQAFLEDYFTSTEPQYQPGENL

The melting point is the temperature, or range, at which the solid turns liquid. The compound `COc1cc(Nc2c(C#N)cnc3cc(-c4cc(CN5CCOCC5)c(CN5CCOCC5)s4)ccc23)c(Cl)cc1Cl` [Example 20, 7-[4,5-Bis(4-morpholinylmethyl)-2-thienyl]-4-(2,4-dichloro-5-methoxyanilino)-3-quinolinecarbonitrile] gave a melting point of 118 to 125 °C. The GI50 in data set [1] is 0.04 µM and 0.03 µM.
With `COc1cc(Nc2c(C#N)cnc3cc(-c4ccc(CN5CCOCC5)cc4)ccc23)c(Cl)cc1C` [Example 234, 4-(2-Chloro-5-methoxy4-methylanilino)-7-[4-(4-morpholinylmethyl)phenyl]3-quinolinecarbonitrile], the melting point fell in the range of 140 to 143 °C. In data set [1], the GI50 was 0.72 µM.
The like results for `COc1cc(Nc2c(C#N)cnc3cc(-c4sccc4C=O)ccc23)c(Cl)cc1Cl` [Example 163, 4-(2,4-Dichloro-5-methoxyanilino)-7-(3-formyl-2-thienyl)-3-quinolinecarbonitrile] were, in that order, 231 to 232 °C and over 10 µM.
For `COc1cc(Nc2c(C#N)cnc3cc(-c4cnc(N5CCOCC5)nc4)ccc23)c(Cl)cc1Cl` [Example 186, 4-(2,4-Dichloro-5-methoxyanilino)-7-[2-(4-morpholinyl)-5-pyrimidinyl]-3-quinolinecarbonitrile], the melting point is over 260 °C. Moreover, the GI50 in data set [1] is over 10 µM.
The matching figures for `COc1cc(Nc2c(C#N)cnc3cc(-c4cccn4C(=O)OC(C)(C)C)ccc23)c(Cl)cc1Cl` [Example 164, tert-butyl 2-[3-cyano-4-(2,4-dichloro-5-methoxyanilino)-7-quinolinyl]pyrrole-1-carboxylate]: 135 °C (dec.) and over 10 µM.
Consider `COc1cc(Nc2c(C#N)cnc3cc(-c4ccc(CNCCS(=O)(=O)c5ccccc5)n4C)ccc23)c(Cl)cc1Cl` [Example 72, 4-(2,4-dichloro-5-methoxyanilino)-7-[1-methyl-5-({[2-(phenylsulfonyl)ethyl]amino}methyl)-1H-pyrrol-2-yl]-3-quinolinecarbonitrile], for which, in data set [1], the GI50 was over 10 µM.
On the same count and under the same terms, with `COc1cc(Nc2c(C#N)cnc3cc(-c4ccc(CN5CCOCC5)cc4)c(OC)cc23)c(Cl)cc1Cl` [Example 37, 4-(2,4-Dichloro-5-methoxyanilino)-6-methoxy-7-[4-(4-morpholinylmethyl)phenyl]-3-quinolinecarbonitrile] the figure was 1.59 µM and 1.49 µM; with `CCN1CCN(Cc2cc(-c3ccc4c(Nc5cc(OC)c(Cl)cc5Cl)c(C#N)cnc4c3)cs2)CC1` [Example 19, 4-(2,4-dichloro-5-methoxyanilino)-7-{5-[(4-ethyl-1-piperazinyl)methyl]-3-thienyl}-3-quinolinecarbonitrile], 0.16 µM.
Turning to `COc1cc(Nc2c(C#N)cnc3cc(-c4csc(CN5CCC(O)CC5)c4)ccc23)c(Cl)cc1Cl` [Example 192, 4-(2,4-Dichloro-5-methoxyanilino)-7-{5-[(4-hydroxy-1-piperidinyl)methyl]-3-thienyl}-3-quinolinecarbonitrile], the GI50 in data set [1] was 0.17 µM.
The same measure, in the same setting: to `COc1cc(Nc2c(C#N)cnc3cc(-c4cccc(CCN5CCOCC5)c4)ccc23)c(Cl)cc1Cl` [Example 28, 4-(2,4-Dichloro-5-methoxyanilino)-7-{3-[2-(4-morpholinyl)ethyl]phenyl}-3-quinolinecarbonitrile] belongs 4.1 µM; to `COc1cc(Nc2c(C#N)cnc3cc(-c4ccccc4CN4CCOCC4)ccc23)c(Cl)cc1Cl` [Example 115, 4-(2,4-Dichloro-5-methoxyanilino)-7-[2-(4-morpholinylmethyl)phenyl]-3-quinolinecarbonitrile], over 10 µM.
On the same count and under the same terms, to `COc1cc(Nc2c(C#N)cnc3cc(-c4cccc(CN5CCN(C)CC5)c4)ccc23)c(Cl)cc1Cl` [Example 113, 4-(2,4-dichloro-5-methoxyanilino)-7-{3-[(4-methyl-1-piperazinyl)methyl]phenyl}-3-quinolinecarbonitrile] belongs 1.4 µM.
For `COc1cc(Nc2c(C#N)cnc3cc(/C=C/c4ccccc4)ccc23)c(Cl)cc1Cl` [Example 139, 4-(2,4-Dichloro-5-methoxyanilino)-7-[(E)-2-phenylethenyl]-3-quinolinecarbonitrile], the GI50 in data set [1] was over 10 µM.
The same measure, in the same setting: with `COc1cc(Nc2c(C#N)cnc3cc(C#Cc4ccccc4)ccc23)c(Cl)cc1Cl` [Example 140, 4-(2,4-Dichloro-5-methoxyanilino)-7-(2-phenylethynyl)-3-quinolinecarbonitrile] the figure was over 10 µM.
Turning to `COc1cc(Nc2c(C#N)cnc3cc(-c4ccsc4CN4CCOCC4)ccc23)c(Cl)cc1Cl` [Example 66, 4-(2,4-Dichloro-5-methoxyanilino)-7-[2-(4-morpholinylmethyl)-3-thienyl]-3-quinolinecarbonitrile], the GI50 in data set [1] is over 10 µM.
Same read-out and setting: with `COc1cc(Nc2c(C#N)cnc3cc(-c4ccc(CCN5CCOCC5)cc4)ccc23)c(Cl)cc1Cl` [Example 27, 4-(2,4-Dichloro-5-methoxyanilino)-7-{4-[2-(4-morpholinyl)ethyl]phenyl}-3-quinolinecarbonitrile] the figure was 1.02 µM; with `COc1cc(Nc2c(C#N)cnc3cc(-c4ccc(CN5CCOCC5)cc4)ccc23)c(Cl)cc1Cl` [Example 29, 4-(2,4-Dichloro-5-methoxyanilino)-7-[4-(4-morpholinylmethyl)phenyl]-3-quinolinecarbonitrile], 0.54 µM and 0.5 µM.
In the case of `COc1cc(Nc2c(C#N)cnc3cc(-c4cc(CN5CCOCC5)cs4)ccc23)c(Cl)cc1Cl` [Example 68, 4-(2,4-Dichloro-5-methoxyanilino)-7-[4-(4-morpholinylmethyl)-2-thienyl]-3-quinolinecarbonitrile], the GI50 in data set [1] came to 0.12 µM.
The same measure, in the same setting: to `COc1cc(Nc2c(C#N)cnc3cc(C#Cc4ccccn4)ccc23)c(Cl)cc1Cl` [Example 91, 4-(2,4-Dichloro-5-methoxyanilino)-7-[2-(2-pyridinyl)ethynyl]-3-quinolinecarbonitrile] belongs over 10 µM; to `COc1cc(Nc2c(C#N)cnc3cc(-c4cscc4CN4CCOCC4)ccc23)c(Cl)cc1Cl` [Example 65, 4-(2,4-Dichloro-5-methoxyanilino)-7-[4-(4-morpholinylmethyl)-3-thienyl]-3-quinolinecarbonitrile], over 10 µM; to `CCN1CCN(CCc2ccc(-c3ccc4c(Nc5cc(OC)c(Cl)cc5Cl)c(C#N)cnc4c3)cc2)CC1` [Example 32, 4-(2,4-Dichloro-5-methoxyanilino)-7-{4-[2-(4-ethyl-1-piperazinyl)ethyl]phenyl}-3-quinolinecarbonitrile], 2 µM and 1.9 µM.
Still for that read-out and setting: to `COc1cc(Nc2c(C#N)cnc3cc(-c4ccc[nH]4)ccc23)c(Cl)cc1Cl` [Example 104, 4-(2,4-Dichloro-5-methoxyanilino)-7-(1H-pyrrol-2-yl)-3-quinolinecarbonitrile] belongs 0.56 µM; to `COc1cc(Nc2c(C#N)cnc3cc(-c4csc(CN5CCOCC5)c4)ccc23)c(Cl)cc1Cl` [Example 24, 4-(2,4-Dichloro-5-methoxyanilino)-7-[5-(4-morpholinylmethyl)-3-thienyl]-3-quinolinecarbonitrile], 0.18 µM.
`COc1cc(Nc2c(C#N)cnc3cc(-c4ccc(CN5CCOCC5)s4)ccc23)c(Cl)cc1Cl` [Example 23, 4-(2,4-Dichloro-5-methoxyanilino)-7-[5-(4-morpholinylmethyl)-2-thienyl]-3-quinolinecarbonitrile]: the GI50 in data set [1] stood at 0.09 µM.
On the same count and under the same terms, with `COc1cc(Nc2c(C#N)cnc3cc(-c4ccc(CN5CCCCC5)s4)ccc23)c(Cl)cc1Cl` [Example 78, 4-(2,4-Dichloro-5-methoxyanilino)-7-[5-(1-piperidinylmethyl)-2-thienyl]-3-quinolinecarbonitrile] the figure was 0.14 µM.
`COc1cc(Nc2c(C#N)cnc3cc(-c4cnc(CN5CCN(C)CC5)n4C)c(OC)cc23)c(Cl)cc1Cl` [Example 233, 4-(2,4-Dichloro-5-methoxyanilino)-6-methoxy-7-{1-methyl-2-[(4-methyl-1-piperazinyl)methyl]-1H-imidazol-5-yl}-3-quinolinecarbonitrile] yielded a melting point of 234 to 236 °C.
In the case of `COc1cc(Nc2c(C#N)cnc3cc(-c4cccc(CCN5CCOCC5)c4)c(OC)cc23)c(Cl)cc1Cl` [Example 38, 4-(2,4-Dichloro-5-methoxyanilino)-6-methoxy-7-{3-[2-(4-morpholinyl)ethyl]phenyl}-3-quinolinecarbonitrile], in data set [1], the GI50 was 12.7 µM and 10.6 µM.
The compound `N#Cc1cnc2cc(-c3cc(CN4CCOCC4)c(CN4CCOCC4)s3)ccc2c1Nc1ccc(Oc2ccccc2)cc1` [Example 168, 7-[4,5-Bis(4-morpholinylmethyl)-2-thienyl]-4-(4-phenoxyanilino)-3-quinolinecarbonitrile] yielded a melting point of 158 to 160 °C.
On to `Cn1ccnc1Sc1ccc(Nc2c(C#N)cnc3cc(-c4ccc(CN5CCN(CCO)CC5)cn4)ccc23)cc1Cl` [Example 217, 4-({3-chloro-4-[(1-methyl-1H-imidazol-2-yl)sulfanyl]phenyl}amino)-7-(5-{[4-(2-hydroxy-ethyl)-1-piperazinyl]-methyl}-2-pyridinyl)-3-quinolinecarbonitrile], for which the melting point fell in the range of 160 to 163 °C.
Still for that read-out and setting: to `Cn1ccnc1Sc1ccc(Nc2c(C#N)cnc3cc(-c4ccc(CN5CCN(C(=O)OC(C)(C)C)CC5)cc4)ccc23)cc1Cl` [Example 137, tert-butyl 4-{4-[4-({3-chloro-4-[(1-methylimidazol-2-yl)sulfanyl]phenyl}amino)-3-cyano-7-quinolinyl]benzyl}-1-piperazinecarboxylate] belongs 184 to 186 °C.
As for `COc1cc(Nc2c(C#N)cnc3cc(-c4ccccc4C=O)ccc23)c(Cl)cc1Cl` [Example 114, 4-(2,4-Dichloro-5-methoxyanilino)-7-(2-formylphenyl)-3-quinolinecarbonittile], the GI50 in data set [1] was over 10 µM.
